Assay results published in patent publication US20090197957A1, “Methods and compositions for the treatment of pain” (Nuon Therapeutics, Inc., priority 2005, published 2009).
“Also recorded” adds a separate entry of the source.

Assays:
[1] = tested on: IL-10; experiment: Serum IL-10 in mice with established CIA (ELISA); type: in vivo; conditions: treated for 10 days, 100, 200 or 400 mg/kg/day, listed as 3,4-DAA
Description: FIG. 3 is a graphical representation depicting that treatment with 3,4-DAA leads to increased IL-10 levels in vivo. Mice with established CIA were treated with 3,4-DAA or vehicle (n=7) for 10 days (see FIG. 2), then bled. IL-10 in the sera was measured by ELISA.

[2] = tested on: draining (inguinal) lymph node cells; experiment: Lymph node cell cytokine responses from treated CIA mice (72 h culture, ELISA); type: in vivo
Description: FIG. 4 is a graphical representation of the results of mice with established CIA being treated for 10 days with 3,4-DAA or vehicle control. Mice were then killed and draining (inguinal) lymph node cells were cultured for 72 h in the absence or presence of type II collagen.
Inguinal lymph nodes were excised from 3,4-DAA-treated and control mice. Alternatively, inguinal lymph nodes were removed from untreated arthritic mice (day 1-5 of arthritis) and 3,4-DAA was added in vitro. In both cases, a single cell suspension was prepared and LNC were cultured in RPMI 1640 containing FCS (10% v/v), 2-mercaptoethanol (20 μM), L-glutamine (1% w/v), penicillin (100 U/ml) and streptomycin (100 μg/ml) in the presence or absence of type II collagen (50 μg/ml). Secreted cytokines (IFN-γ, IL-5, and IL-10) were measured after 72 h. by ELISA. In brief, 96 well ELISA plates were coated with the respective capture antibody, blocked with bovine serum albumin (2% w/v), and then incubated with LNC culture supernatants overnight at 4° C. After washing, bound cytokines were detected using biotinylated detect antibodies. A standard curve was generated using known concentrations of the appropriate recombinant cytokine and the concentrations of cytokines present in culture supernatants were estimated by reference to the standard curve.
At the end of the experiment draining (inguinal) LNC from control and treated mice were cultured for 72 h in the presence or absence of type II collagen. IFN-γ, IL-5 and IL-10 production was measured by ELISA.

[3] = tested on: collagen-induced arthritis (CIA); experiment: Development of collagen-induced arthritis (treatment from day of immunisation); type: in vivo, DBA/1 mice; conditions: 200 mg/kg/day from the day of immunisation
Description: Type II collagen was purified from bovine cartilage, as described [Williams 2004, Methods Mol. Med. 98:207-216] and solubilized by stirring overnight at 4° C. in acetic acid (0.1M) or Tris buffer (0.05 M Tris, containing 0.2 M NaCl, pH 7.4). 3,4-DAA was synthesised by Angiogen Pharmaceuticals Pty. Ltd. For in vivo studies 3,4-DAA was dissolved at a maximum concentration of 10 mg/ml in 1% sodium bicarbonate by heating for 1 h at 70° C. Upon cooling, an emulsion was formed. For in vitro studies 3,4-DAA was dissolved in dimethyl sulphoxide (DMSO). 3-Hydroxy-anthranilic acid (3-HAA) was purchased from Sigma (Poole, UK) and dissolved in PBS.
Male DBA/1 mice (8-12 weeks old) were immunized intradermally at the base of the tail with bovine type II collagen (200 μg) emulsified in complete Freund's adjuvant (CFA; Difco, West Molesley, UK). Arthritis was monitored clinically using the following scoring system: 0=normal, 1=slight swelling and/or erythema, and 2=pronounced oedematous swelling. Each limb was graded, giving a maximum score of 8 per mouse. In addition, paw-swelling was measured using callipers.
In order to assess its anti-arthritic potential, 3,4-DAA was injected into DBA/1 mice (200 mg/kg/day) from the day of immunisation with type II collagen in CFA. […]

[4] = tested on: anti-type II collagen IgG1 and IgG2a; experiment: Serum anti-collagen antibody levels (ELISA); type: in vivo, DBA/1 mice
Description: ELISA plates (Nunc, Uxbridge, UK) were coated with 2 μg/ml of bovine CII dissolved overnight in Tris Buffer (0.05 M Tris, containing 0.2 M NaCl, pH 7.4) blocked with 2% bovine serum albumin (BSA) and then incubated with serial dilutions of test sera. A reference sample was included on each plate. Bound total IgG, IgG1 or IgG2a was detected by incubation with HRP-conjugated sheep anti-mouse IgG, IgG1 or IgG2a, followed by TMB substrate. Optical density was measured at 450 nm.

[5] = 11,484 patients with restenosis following percutaneous coronary intervention; cited from earlier work
[6] = target: T1, Cyclooxygenase COX-2 (Homo sapiens, UniProt P35354); experiment: 118010 Cyclooxygenase COX-2 biochemical assay (EIA quantitation of PGE2)
T1 construct: host or cells: insect Sf21
T1 sequence (P35354 18-604): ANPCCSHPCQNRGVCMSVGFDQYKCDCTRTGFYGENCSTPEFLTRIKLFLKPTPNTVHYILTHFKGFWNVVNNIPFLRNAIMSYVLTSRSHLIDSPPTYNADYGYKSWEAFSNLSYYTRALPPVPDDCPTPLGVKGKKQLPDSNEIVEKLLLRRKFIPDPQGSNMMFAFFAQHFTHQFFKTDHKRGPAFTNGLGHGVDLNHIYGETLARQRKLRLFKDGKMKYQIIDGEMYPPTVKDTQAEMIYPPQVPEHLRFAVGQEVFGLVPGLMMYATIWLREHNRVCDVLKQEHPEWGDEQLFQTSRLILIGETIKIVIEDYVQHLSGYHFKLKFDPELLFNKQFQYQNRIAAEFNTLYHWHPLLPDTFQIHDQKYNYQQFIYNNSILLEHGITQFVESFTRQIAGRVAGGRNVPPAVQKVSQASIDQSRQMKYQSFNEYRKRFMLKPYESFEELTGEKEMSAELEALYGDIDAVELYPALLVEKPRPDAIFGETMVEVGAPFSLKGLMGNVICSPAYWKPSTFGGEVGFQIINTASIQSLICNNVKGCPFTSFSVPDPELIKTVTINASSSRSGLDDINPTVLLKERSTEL
Description: Methods employed in this study have been adapted from the scientific literature to maximize reliability and reproducibility. […] Assays were performed under conditions described in the accompanying “Methods” section of this report. The literature references for each assay are in the “Literature References” section. If either of these sections were not originally requested with the accompanying report, please contact us at the number below for a printout of either of these report sections.
Biochemical assay results are presented as the percent inhibition of specific binding or activity throughout the report.

## COc1ccc(/C=C/C(=O)Nc2ccccc2C(=O)O)cc1OC [Tranilast, 2-[[3-(3,4-dimethoxyphenyl)-1-oxo-2-propenyl]amino]benzoic acid]
[1]
  circulating IL-10 levels (sera): dose-dependent increase; also recorded: increased
[2]; 72 h culture in presence of type II collagen
  differences between the groups in cytokine production on re-stimulation with collagen: not significant
[2]; mice given 400 mg/kg (b205 prints 400 mg/mouse) for 10 days, 72 h culture without collagen
  IFN-γ production by lymph node cells: significantly reduced
[2]; mice treated for 10 days, 72 h culture
  IL-10 production by lymph node cells: no IL-10 was detected
[3]
  clinical score of arthritis by day 28: 1
[3]; 7 mice
  mice that had developed arthritis by day 28: 14%
[4]; 200 mg/kg/day from the day of immunisation
  anti-collagen IgG1 or IgG2a levels in sera: no change
[4]; established CIA, 100, 200 or 400 mg/kg/day over 10 days
  anti-type II collagen IgG1 and IgG2a levels in sera: no differences
[5]
  adverse cardiovascular events: no significant increase
[6]
  effect on the activity of the COX-2 enzyme: no effect
[6]; 10 μM, n=2
  inhibition at 10 µM: 0%
